{"source": "patent US10253071B2", "about": "“Selectin inhibitors, composition, and uses related thereto” (Beth Israel Deaconess Medical Center, Inc., priority 2014, dated 2019)", "molecules": {"B1": {"name": "native PSGL-1: native P-selectin glycopeptide ligand-1, Kd comparison value (protein, UniProt Q14242 42-412, looked up)", "P-selectin glycoprotein …": "QATEYEYLDYDFLPETEPPEMLRNSTDTTPLTGPGTPESTTVEPAARRSTGLDAGGAVTELTTELANMGNLSTDSAAMEIQTTQPAATEAQTTQPVPTEAQTTPLAATEAQTTRLTATEAQTTPLAATEAQTTPPAATEAQTTQPTGLEAQTTAPAAMEAQTTAPAAMEAQTTPPAAMEAQTTQTTAMEAQTTAPEATEAQTTQPTATEAQTTPLAAMEALSTEPSATEALSMEPTTKRGLFIPFSVSSVTHKGIPMAASNLSVNYPVGAPDHISVKQCLLAILILALVATIFFVCTVVLAVRLSRKGHMYPVRNYSPTEMVCISSLLPDGGEGPSATANGGLSKAKSPGLTPEPREDREGDDLTLHSFLP"}}, "key": {"human P-selectin [1]": {"biological_target": "T1, human P-selectin (Homo sapiens, UniProt P16109)", "T1 sequence (P16109 42-830)": "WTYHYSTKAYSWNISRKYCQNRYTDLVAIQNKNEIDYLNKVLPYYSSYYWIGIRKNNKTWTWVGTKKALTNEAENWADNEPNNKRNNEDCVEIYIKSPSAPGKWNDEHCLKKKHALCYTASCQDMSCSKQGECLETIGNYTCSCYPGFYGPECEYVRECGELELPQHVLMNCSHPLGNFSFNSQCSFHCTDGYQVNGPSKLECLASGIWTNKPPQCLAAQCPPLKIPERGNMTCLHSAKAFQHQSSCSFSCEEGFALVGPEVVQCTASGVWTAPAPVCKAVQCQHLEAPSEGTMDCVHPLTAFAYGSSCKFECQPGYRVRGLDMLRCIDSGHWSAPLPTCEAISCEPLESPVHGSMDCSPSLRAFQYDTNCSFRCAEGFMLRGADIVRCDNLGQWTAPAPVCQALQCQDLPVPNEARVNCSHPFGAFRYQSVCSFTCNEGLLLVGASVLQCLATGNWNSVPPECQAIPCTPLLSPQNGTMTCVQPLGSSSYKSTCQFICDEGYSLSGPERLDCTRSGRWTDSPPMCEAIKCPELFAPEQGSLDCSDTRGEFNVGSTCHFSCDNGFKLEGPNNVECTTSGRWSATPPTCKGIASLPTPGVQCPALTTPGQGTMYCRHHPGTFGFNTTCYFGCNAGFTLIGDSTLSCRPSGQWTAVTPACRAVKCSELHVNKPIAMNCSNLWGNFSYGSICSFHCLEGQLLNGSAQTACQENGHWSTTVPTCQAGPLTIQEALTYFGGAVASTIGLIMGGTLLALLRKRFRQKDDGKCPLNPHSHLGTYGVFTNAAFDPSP", "test": "Biacore binding assay, human P-selectin", "description": "(§1) Bound peptides were detected using Alexa-488 labeled anti-human IgG antibody (5 μg/mL). Three lectins RCA-1, AAL, and PNA were used to confirm the sequence of enzymatic steps. Monoclonal antibodies CHO131, PSG2 antibody and PL-1 were used to confirm the presence of SLex, tyrosine sulfates, and the peptide sequence, respectively. Biacore binding analysis to human P-selectin with observed rate constants for (D) GSnP-6, kon 3.1×10^5 M^−1s^−1, koff 6.9×10^3 M^−1s^−; GSn2P-6, kon6.4×10^5 M^−1s^−1, koff 6.8×10^3 M^−1s. Biacore binding analysis to mouse P-selectin with observed rate constants for (E) GsnP-6, kon 4.9×10^4 M^−1s^−1, koff 8.0×10^3 M^−1s^−; GSn2P-6 kon 5.3×10^4 M^−1s^−1, koff 9.0×10^3 M^−1s. (F) Temperature- and pH-dependent stability studies of GSnP-6.\n(§2) Dissociation constants (Kd) were determined using a Biacore binding assay after initial capture of biotinylated GS(n)P-6 onto streptavidin-coated sensor chips followed by flow through of P-, L- or E-sel-Ig (2.5 to 60 μg/mL). […] The Kd of GSnP-6 to murine P-selectin was ˜9-fold lower than to human P-selectin."}, "mouse P-selectin": {"biological_target": "T2, mouse P-selectin (Mus musculus, UniProt Q01102)", "T2 sequence (Q01102 42-768)": "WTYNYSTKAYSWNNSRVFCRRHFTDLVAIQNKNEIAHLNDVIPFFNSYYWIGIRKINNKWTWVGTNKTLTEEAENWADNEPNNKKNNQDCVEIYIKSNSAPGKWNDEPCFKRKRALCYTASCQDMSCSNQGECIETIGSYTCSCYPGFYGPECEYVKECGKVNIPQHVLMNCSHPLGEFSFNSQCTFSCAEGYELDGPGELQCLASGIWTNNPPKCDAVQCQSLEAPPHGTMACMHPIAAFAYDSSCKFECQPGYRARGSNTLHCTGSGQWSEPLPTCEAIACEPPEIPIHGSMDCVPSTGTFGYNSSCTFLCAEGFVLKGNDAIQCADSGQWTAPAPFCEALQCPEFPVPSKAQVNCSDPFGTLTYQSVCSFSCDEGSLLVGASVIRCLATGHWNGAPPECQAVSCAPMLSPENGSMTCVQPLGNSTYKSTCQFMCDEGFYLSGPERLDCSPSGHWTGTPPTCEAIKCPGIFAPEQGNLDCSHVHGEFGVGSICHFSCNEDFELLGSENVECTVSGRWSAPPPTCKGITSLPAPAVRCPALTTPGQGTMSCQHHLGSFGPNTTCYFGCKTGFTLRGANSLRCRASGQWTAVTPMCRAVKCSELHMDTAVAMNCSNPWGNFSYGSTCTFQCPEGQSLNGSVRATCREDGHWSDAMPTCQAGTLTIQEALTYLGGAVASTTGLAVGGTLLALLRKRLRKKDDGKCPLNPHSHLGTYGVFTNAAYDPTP", "test": "Biacore binding assay, mouse P-selectin", "description": "as §1, §2"}, "[2]": {"test": "Chemical stability at low pH and at high temperature (RP-HPLC)", "type": "physicochemical", "settings": "sodium acetate/acetic acid buffer pH 5, 37° C.; and 2 mM phosphate buffer pH 7.5, 60° C.", "description": "as §1\nThe chemical stability of GSnP-6 was evaluated under low pH conditions by incubating the compound in sodium acetate/acetic acid buffer at pH 5, 37° C., as well as under high temperature conditions by incubation in 2 mM phosphate buffer at pH 7.5, 60° C. (FIG. 3E)."}, "[3]": {"test_system": "P-selectin (recombinant Ig chimera)", "test": "Microarray binding screen of glycopeptide mimics, P-selectin", "design": "species or system human and mouse", "settings": "selectin Ig chimeras 5-20 μg/mL, Alexa-488 anti-human IgG", "description": "as §1\nBinding affinities of PSGL-1 mimics towards selectins was initially screened using a microarray in which glycosulfopeptides and glycan standards (Sialyl Le^x, NA2, NA2,3, NA2,6 and LNnT) were printed on a NHS-activated glass slide. The slide was then incubated with recombinant Ig chimeras of P-, L-, or E-selectin (5-20 μg/mL) followed by Alexa-488 labeled anti-human IgG antibody (5 μg/mL). […] Binding of glycopeptides mimics to selectins was […] dependent and inhibited by EDTA."}, "human P-selectin [4]": {"biological_target": "T1, human P-selectin", "settings": "comparison value for P-selectin; read-out: Kd of native PSGL-1 (comparison value); cited from earlier work"}}, "note": "Like-named read-outs stand apart in the source and are kept apart here. Square brackets hold non-standard residues; d marks the D form. Ends that are not written are not given here. Peptide text beside a SMILES is read from it. * marks the point of attachment. X1 = CC(=O)N[C@@H]1[C@@H](O[C@@H]2O[C@H](CO)[C@H](O)[C@H](O)[C@H]2O)[C@@H](O)[C@@H](CO[C@@H]2O[C@H](CO)[C@@H](O[C@@H]3O[C@H](CO)[C@H](O)[C@H](O[C@]4(C(=O)O)C[C@H](O)[C@@H](NC(C)=O)[C@H]([C@H](O)[C@H](O)CO)O4)[C@H]3O)[C@H](O[C@@H]3O[C@@H](C)[C@@H](O)[C@@H](O)[C@@H]3O)[C@H]2NC(C)=O)O[C@@H]1*; Phe(4-SO3H) = N[C@@H](Cc1ccc(S(=O)(=O)O)cc1)C(=O)O; Mca = COc1ccc2c(CC(=O)*)cc(=O)oc2c1"}
{"molecule": "COc1ccc2c(CC(=O)NCCCC[C@H](N)C(=O)N[C@@H](CCC(=O)O)C(=O)N[C@@H](Cc3ccc(S(=O)(=O)O)cc3)C(=O)N[C@@H](CCC(=O)O)C(=O)N[C@@H](Cc3ccc(S(=O)(=O)O)cc3)C(=O)N[C@@H](CC(C)C)C(=O)N[C@@H](CC(=O)O)C(=O)N[C@@H](Cc3ccc(S(=O)(=O)O)cc3)C(=O)N[C@@H](CC(=O)O)C(=O)N[C@@H](Cc3ccccc3)C(=O)N[C@@H](CC(C)C)C(=O)N3CCC[C@H]3C(=O)N[C@@H](CCC(=O)O)C(=O)N[C@H](C(=O)N[C@@H](CCC(=O)O)C(=O)N3CCC[C@H]3C(=O)N[C@@H](CC(C)C)C(=O)O)[C@@H](C)O[C@H]3O[C@H](CO[C@@H]4O[C@H](CO)[C@@H](O[C@@H]5O[C@H](CO)[C@H](O)[C@H](O[C@]6(C(=O)O)C[C@H](O)[C@@H](NC(C)=O)[C@H]([C@H](O)[C@H](O)CO)O6)[C@H]5O)[C@H](O[C@@H]5O[C@@H](C)[C@@H](O)[C@@H](O)[C@@H]5O)[C@H]4NC(C)=O)[C@H](O)[C@H](O[C@@H]4O[C@H](CO)[C@H](O)[C@H](O)[C@H]4O)[C@H]3NC(C)=O)cc(=O)oc2c1", "note": "[GSn2P-6] (H-K(Mca)E[Phe(4-SO3H)]E[Phe(4-SO3H)]LD[Phe(4-SO3H)]DFLPET(X1)EPL-OH; N-terminus assumed)", "values": [{"measurement": "koff", "setting": "human P-selectin [1]; Biacore observed rate constant", "result": 0.0068, "unit": "s⁻¹"}, {"measurement": "kon", "setting": "human P-selectin [1]; Biacore observed rate constant", "result": 640000, "unit": "M⁻¹ s⁻¹"}, {"measurement": "Kd", "setting": "human P-selectin [1]; biotinylated GS(n)P-6 captured on streptavidin chip, P-sel-Ig 2.5 to 60 μg/mL, read-out: Dissociation constant (Kd) to human P-selectin", "result": 14, "unit": "nM"}, {"measurement": "koff", "setting": "mouse P-selectin; read-out: koff, mouse P-selectin", "result": 0.009, "unit": "s⁻¹"}, {"measurement": "kon", "setting": "mouse P-selectin; read-out: kon, mouse P-selectin", "result": 53000, "unit": "M⁻¹ s⁻¹"}]}
{"molecule": "GSP-6: Tyrosine O-sulfate series (X: O; R=H); native N-terminal PSGL-1 sequence containing tyrosine sulfate, hexasaccharide glycan (EYEYLDYDFLPETEPPE; also: tyrosine O-sulfate, positions not given here, hexasaccharide glycan, site not given here) [reference compound]", "values": [{"measurement": "chemical stability (degraded products by RP-HPLC)", "setting": "[2]", "result": "rapidly degrades"}, {"measurement": "binding to P-selectin compared with E- or L-selectin", "setting": "[3]", "result": "bound to P-selectin more strongly than to E- or L-selectin"}]}
{"molecule": "B1", "values": [{"measurement": "Kd", "setting": "human P-selectin [4]", "result": 73, "unit": "nM"}]}
